Data: ChEMBL document CHEMBL1141481, “Probing the structural and topological requirements for CCR2 antagonism: holographic QSAR for indolopiperidine derivatives” (Bioorg Med Chem Lett, 2008)
Where “and” joins values, the source holds several entries; their conditions need not be identical. Equal entries are not always repeated.

Target: C-C chemokine receptor type 2 (Homo sapiens, UniProt P41597)
Experiment: Antagonist activity at human CCR2 receptor

Chain of C-C chemokine receptor type 2 (P41597 whole entry): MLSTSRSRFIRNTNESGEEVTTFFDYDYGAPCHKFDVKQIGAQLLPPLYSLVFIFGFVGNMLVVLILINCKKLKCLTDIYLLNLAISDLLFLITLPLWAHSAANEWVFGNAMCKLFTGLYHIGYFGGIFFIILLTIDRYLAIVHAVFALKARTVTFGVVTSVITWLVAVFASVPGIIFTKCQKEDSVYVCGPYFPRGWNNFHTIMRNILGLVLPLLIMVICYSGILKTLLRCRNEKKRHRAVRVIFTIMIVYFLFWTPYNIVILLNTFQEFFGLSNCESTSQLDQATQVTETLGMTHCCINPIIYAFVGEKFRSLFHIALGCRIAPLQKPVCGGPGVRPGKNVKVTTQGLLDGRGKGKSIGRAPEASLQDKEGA

| Compound | Ki |
| --- | --- |
| O=C(NCCCCCN1CCC(c2c[nH]c3ccccc23)CC1)c1ccc(-c2ccccc2)cc1 | 5.5 µM |
| CC(=O)Nc1ccc(/C=C/C(=O)NCCCCCN2CCC(c3c[nH]c4ccccc34)CC2)cc1 | 12.9 µM |
| O=C(NCCCCCN1CCC(c2c[nH]c3ccccc23)CC1)Nc1ccc(Cl)c(Cl)c1 | 1.62 µM |
| O=C(/C=C/c1ccc(I)cc1)NCCCCCN1CCC(c2c[nH]c3ccccc23)CC1 | 0.468 µM |
| Cc1ccc(/C=C/C(=O)NCCCCCN2CCC(c3c[nH]c4ccccc34)CC2)cc1 | 0.562 µM |
| O=C(/C=C/c1ccc(Cl)c(Cl)c1)NCCCCCN1CCC(c2c[nH]c3ccccc23)CC1 | 0.427 µM |
| O=C(/C=C/c1ccc(-c2ccccc2)cc1)NCCCCCN1CCC(c2c[nH]c3ccccc23)CC1 | 1.48 µM |
| O=C(/C=C/c1ccc(Cl)c(Cl)c1)N[C@H]1CC[C@H](CN2CCC(c3c[nH]c4ccccc34)CC2)CC1 | 0.631 µM and 0.646 µM |
| O=C(NCCCCCN1CCC(c2c[nH]c3ccccc23)CC1)c1ccc(Br)cc1 | 7.24 µM |
| O=C(/C=C/c1ccc(Br)cc1)NCCCCCN1CCC(c2c[nH]c3ccccc23)CC1 | 0.355 µM |
| O=C(/C=C/c1ccccc1Cl)NCCCCCN1CCC(c2c[nH]c3ccccc23)CC1 | 4.47 µM |
| O=C(Cc1ccc(Cl)c(Cl)c1)NCCCCCN1CCC(c2c[nH]c3ccccc23)CC1 | 4.47 µM |
| CCCCc1ccc(/C=C/C(=O)NCCCCCN2CCC(c3c[nH]c4ccccc34)CC2)cc1 | 1.7 µM |
